Results reported in US20170050957A1, “4-AMINO-6-(HETEROCYCLIC)PICOLINATES AND 6-AMINO-2-(HETEROCYCLIC)PYRIMIDINE-4-CARBOXYLATES AND THEIR USE AS HERBICIDES” (Dow AgroSciences LLC, priority 2013, published 2017).
Like-named read-outs stand apart in the source and are kept apart here.

Columns and labels:
[1] = test system: Key Broadleaf Weed and Crop Species; assay: Post-emergent Test II herbicidal activity (Table 15); format: in vivo; conditions: post-emergence, 336 h, 14 d; for pest or weed control at 35 g/ha: 35 g ai/ha; for pest or weed control at 70 g/ha: 70 g ai/ha; for pest or weed control at 140 g/ha: 140 g ai/ha
How it was run: (§1)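 Herbicidal effect scored as percent visual injury, 14 d after post-emergent application. Spray solutions contained acetone, DMSO, isopropyl alcohol, crop oil concentrate and surfactant, applied at 187 L/ha to young plants (1-2 true leaves).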

[2] = test system: Key Grass and Sedge Weeds as well as Grass Crops; assay: Post-emergent Test II herbicidal activity (Table 16); format: in vivo; conditions: post-emergence, 336 h, 14 d; for pest or weed control at 35 g/ha: 35 g ai/ha; for pest or weed control at 70 g/ha: 70 g ai/ha; for pest or weed control at 140 g/ha: 140 g ai/ha
How it was run: as §1

[3] = Abutilon theophrasti, velvetleaf (Abutilon theophrasti), read-out: Visual Growth Reduction (%) 14 Days After Application, ABUTH
[4] = Amaranthus retroflexus, redroot pigweed (Amaranthus retroflexus), read-out: Visual Growth Reduction (%) 14 Days After Application, AMARE
[5] = Brassica napus, oilseed rape, canola (Brassica napus), read-out: Visual Growth Reduction (%) 14 Days After Application, BRSNN
[6] = Chenopodium album, lambsquarters (Chenopodium album), read-out: Visual Growth Reduction (%) 14 Days After Application, CHEAL
[7] = Euphorbia heterophylla, wild poinsettia (Euphorbia heterophylla), read-out: Visual Growth Reduction (%) 14 Days After Application, EPHHL
[8] = Helianthus annuus, sunflower (Helianthus annuus), read-out: Visual Growth Reduction (%) 14 Days After Application, HELAN
[9] = Cyperus esculentus, yellow nutsedge (Cyperus esculentus), read-out: Visual Growth Reduction (%) 14 Days After Application, CYPES
[10] = Echinochloa crus-galli, barnyardgrass (Echinochloa crus-galli), read-out: Visual Growth Reduction (%) 14 Days After Application, ECHCG
[11] = Oryza sativa, rice (Oryza sativa), read-out: Visual Growth Reduction (%) 14 Days After Application, ORYSA
[12] = Setaria faberi, giant foxtail (Setaria faberi), read-out: Visual Growth Reduction (%) 14 Days After Application, SETFA
[13] = Triticum aestivum, wheat, spring (Triticum aestivum), read-out: Visual Growth Reduction (%) 14 Days After Application, TRZAS
[14] = Zea mays, maize, corn (Zea mays), read-out: Visual Growth Reduction (%) 14 Days After Application, ZEAMX

Row | Compound | pest or weed control at 35 g/ha [1, 3] [%] | pest or weed control at 70 g/ha [1, 3] [%] | pest or weed control at 140 g/ha [1, 3] [%] | pest or weed control at 35 g/ha [1, 4] [%] | pest or weed control at 70 g/ha [1, 4] [%] | pest or weed control at 140 g/ha [1, 4] [%] | pest or weed control at 35 g/ha [1, 5] [%] | pest or weed control at 70 g/ha [1, 5] [%] | pest or weed control at 140 g/ha [1, 5] [%] | pest or weed control at 35 g/ha [1, 6] [%] | pest or weed control at 70 g/ha [1, 6] [%] | pest or weed control at 140 g/ha [1, 6] [%] | pest or weed control at 35 g/ha [1, 7] [%] | pest or weed control at 70 g/ha [1, 7] [%] | pest or weed control at 140 g/ha [1, 7] [%] | pest or weed control at 35 g/ha [1, 8] [%] | pest or weed control at 70 g/ha [1, 8] [%] | pest or weed control at 140 g/ha [1, 8] [%] | pest or weed control at 35 g/ha [2, 9] [%] | pest or weed control at 70 g/ha [2, 9] [%] | further results
1 | COc1c(N)nc(-c2ccc(Cl)c3occc23)nc1C(=O)O [Compound 2.22] | 30 to 44 | 30 to 44 | 45 to 59 | 95 to 100 | 95 to 100 | 95 to 100 | 0 to 29 | 45 to 59 | 60 to 74 | 95 to 100 | 95 to 100 | 95 to 100 | 0 to 29 | 0 to 29 | 0 to 29 | 75 to 84 | 85 to 94 | 95 to 100 | 0 to 29 | 0 to 29 | pest or weed control at 140 g/ha [2, 9]: 0 to 29%; pest or weed control at 35 g/ha [2, 10]: 0 to 29%; pest or weed control at 70 g/ha [2, 10]: 0 to 29%; pest or weed control at 140 g/ha [2, 10]: 0 to 29%; pest or weed control at 35 g/ha [2, 11]: 0 to 29%; pest or weed control at 70 g/ha [2, 11]: 0 to 29%; pest or weed control at 140 g/ha [2, 11]: 0 to 29%; pest or weed control at 35 g/ha [2, 12]: 0 to 29%; pest or weed control at 70 g/ha [2, 12]: 0 to 29%; pest or weed control at 140 g/ha [2, 12]: 0 to 29%; pest or weed control at 35 g/ha [2, 13]: 0 to 29%; pest or weed control at 70 g/ha [2, 13]: 0 to 29%; pest or weed control at 140 g/ha [2, 13]: 0 to 29%; pest or weed control at 35 g/ha [2, 14]: 0 to 29%; pest or weed control at 70 g/ha [2, 14]: 0 to 29%; pest or weed control at 140 g/ha [2, 14]: 0 to 29%; melting point: 204 to 206 °C
2 | COC(=O)c1nc(-c2ccc3sccc3c2)c(Cl)c(N)c1Cl [Compound 3.01, Methyl 4-amino-6-(benzo[b]thiophenyl-5-yl)-3,5-dichloropicolinate] | 60 to 74 | 60 to 74 | 75 to 84 | 85 to 94 | 95 to 100 | 95 to 100 | 0 to 29 | 0 to 29 | 0 to 29 | 95 to 100 | 95 to 100 | 95 to 100 | 0 to 29 | 0 to 29 | 0 to 29 | 75 to 84 | 75 to 84 | 85 to 94 | 0 to 29 | 0 to 29 | pest or weed control at 140 g/ha [2, 9]: 0 to 29%; pest or weed control at 35 g/ha [2, 10]: 0 to 29%; pest or weed control at 70 g/ha [2, 10]: 0 to 29%; pest or weed control at 140 g/ha [2, 10]: 0 to 29%; pest or weed control at 35 g/ha [2, 11]: 0 to 29%; pest or weed control at 70 g/ha [2, 11]: 0 to 29%; pest or weed control at 140 g/ha [2, 11]: 0 to 29%; pest or weed control at 35 g/ha [2, 12]: 0 to 29%; pest or weed control at 70 g/ha [2, 12]: 0 to 29%; pest or weed control at 140 g/ha [2, 12]: 0 to 29%; pest or weed control at 35 g/ha [2, 13]: 0 to 29%; pest or weed control at 70 g/ha [2, 13]: 0 to 29%; pest or weed control at 140 g/ha [2, 13]: 0 to 29%; pest or weed control at 35 g/ha [2, 14]: 0 to 29%; pest or weed control at 70 g/ha [2, 14]: 45 to 59%; pest or weed control at 140 g/ha [2, 14]: 60 to 74%; melting point: 50 to 56 °C
